Test results taken from patent US11453668B2, “JAK inhibitors containing a 4-membered heterocyclic amide” (THERAVANCE BIOPHARMA R&D IP, LLC, priority 2017, dated 2022).

What was measured:
[1] = test system: IL-6 stimulated STAT3 phosphorylation in CD3+ T cells; assay: Inhibition of IL-6 stimulated pSTAT3 in CD3+ T cells; assay type: cell-based, human
Source text: A protocol analogous to that of Assay 10 was used to determine the potency of the test compound for inhibition of interleuken-6 (IL-6) stimulated STAT3 phosphorylation. An Alexa Fluor 647 conjugated anti-pSTAT3 antibody (pY705, Clone 4/P, BD Biosciences) was used to detect STAT3 phosphorylation.

[2] = test system: IL-5 mediated survival of human eosinophils; assay: IL-5 mediated eosinophil survival assay; assay type: cell-based
Method: The potency of the test compound for IL-5 mediated eosinophil survival was measured in human eosinophils isolated from human whole blood (AllCells). Because IL-5 signals through JAK, this assay provides a measure of JAK cellular potency.
Human eosinophils were isolated from fresh human whole blood (AllCells) of healthy donors. Blood was mixed with 4.5% Dextran (Sigma-Aldrich) in a 0.9% sodium chloride solution (Sigma-Aldrich). Red blood cells were left to sediment for 35 minutes. The leukocyte rich upper layer was removed and layered over Ficoll-Paque (GE Healthcare) and centrifuged at 600 g for 30 minutes. The plasma and mononuclear cell layers were removed before the granulocyte layer was lysed with water to remove any contaminating red blood cells. […] Purity was analyzed using a LSRII flow cytometer (BD Biosciences). […]
After cytokine stimulation, cells were centrifuged at 300 g for 5 min and washed twice with cold DPBS (Life Technologies). To access viability and apoptosis, cells were incubated with Propidium Iodide (Thermo Fisher Scientific) and APC Annexin V (BD Biosciences) and analyzed using a LSRII flow cytometer (BD Biosciences). IC50 values were determined from analysis of the viability curves of percent cell viability vs compound concentration. Data are expressed as pIC50 (negative decadic logarithm IC50 ) values.

[3] = test system: IL-2/anti-CD3 stimulated IFNγ in human PBMCs; assay: Inhibition of IL-2/anti-CD3 stimulated IFNγ in human PBMCs; assay type: cell-based
Method: The potency of the test compound for inhibition of interleukin-2 (IL-2)/anti-CD3 stimulated interferon gamma (IFNγ) was measured in human peripheral blood mononuclear cells (PBMCs) isolated from human whole blood (Stanford Blood Center). Because IL-2 signals through JAK, this assay provides a measure of JAK cellular potency.
(1) Human peripheral blood mononuclear cells (PBMC) were isolated from human whole blood of healthy donors using a ficoll gradient. Cells were cultured in a 37° C., 5% CO2 humidified incubator in RPMI (Life Technologies) supplemented with 10% Heat Inactivated Fetal Bovine Serum (FBS, Life Technologies), 2 mM Glutamax (Life Technologies), 25 mM HEPES (Life Technologies) and 1X Pen/Strep (Life
Technologies). Cells were seeded at 200,000 cells/well in media (50 μL) and cultured for 1 h. Compounds were serially diluted in DMSO and then diluted another 500-fold (to a 2× final assay concentration) in media. […]
(2) After cytokine stimulation, cells were centrifuged at 500 g for 5 min and supernatants removed and frozen at −80° C. To determine the inhibitory potency of the test compound in response to IL-^2/anti-CD3, supernatant IFNγ concentrations were measured via ELISA (R&D Systems). IC50 values were determined from analysis of the inhibition curves of concentration of IFNγ vs compound concentration. Data are expressed as pIC50 (negative decadic logarithm IC50) values.

## CCc1cc(O)c(F)cc1-c1ccc2c(-c3nc4c([nH]3)CN(C(C)C)[C@H](C(=O)N3CC(N(C)C)C3)C4)n[nH]c2c1 [Example 2, (S)-(3-(dimethylamino)azetidin-1-yl)(2-(6-(2-ethyl-5-fluoro-4-hydroxyphenyl)-1H-indazol-3-yl)-5-isopropyl-4,5,6,7-tetrahydro-3H-imidazo [4,5-c]pyridin-6-yl)methanone]
[1]
  inhibition of IL-6 signaling: inhibit IL-6 signaling
[2]
  inhibition of IL-5 mediated human eosinophil survival: potently inhibit
[3]
  inhibition of anti-CD3 and IL-2 induced release of IFNγ from activated human peripheral blood-isolated T cells: inhibit
